Experiments:
[1] = background; cited from earlier work
[2] = background; cited from earlier work; remark: listed apart in the source
UGT1A1 = details: as in patients with Gilbert's syndrome; background; cited from earlier work
[3] = target: bacterial b-glucuronidase (Escherichia coli, UniProt P05804); experiment: Inhibition of b-glucuronidase cleavage of 4-methylumbelliferyl-b-D-glucuronide by competitor b-D-glucuronides (FIG. 2); format: biochemical; details: 20 μM 4-methylumbelliferyl-b-D-glucuronide, result in words
Method: FIG. 1 Kinetic measurements of 4-methylumbelliferylb-D-glucuronide cleavage by b-gluuronidase. In part A, 100 μl assays were performed in triplicate using 100 mM Tris-HCl buffer, pH 7.4, containing 10 mM MgCl2, 0.1 μg/ml b-gluuronidase and 5 (.box-solid.), 20 (.tangle-solidup.), and 100 (.circle-solid.) μM, 4-methylumbelliferyl-b-D-glucuronide. Reactions were started by the addition of enzyme, incubated for indicated times at ambient temperature and then quenched with 100 μl of 0.1 M Na2 CO3, pH 9.5, containing 0.1% CHAPS. Fluorescence intensity was measured with a Beacon fluorescent polarization instrument (PanVera Corporation, Madison, Wis.) in intensity mode, using excitation and emission filters of 360 nm and 440 nm, respectively, and slit widths set at 10 nm. Part B, assays were performed in duplicate for 20 min as above with the indicated amount of 4-methylumbelliferyl-b-D-glucuronide. 4-Methyumbelliferone concentration was determined from a calibration curve.
FIG. 2 Inhibition curves. Assays were performed as described in the legend to FIG. 1B with 20 .quadrature.M 4-methylumbelliferyl-b-D-glucuronide and the indicated amount of competitor b-D-glucuronide. Fluorescence intensity due to 4-methylumbelliferyl-b-D-glucuronide cleavage, in the absence of a competitor was arbitrarily assigned as 100%. Competitors, α-napthyl b-D-glucuronide (.box-solid.), .quadrature.-trifluoromethylumbelliferyl-b-D-glucuronide (o), .quadrature.-estradiol 3-.quadrature.b-D-glucuronide) (.tangle-solidup.), p-acetominophenyl b-D-glucuronide (.circle-solid.), 5.quadrature.-androstane-3α, 17α-diol-11-one-17-carboxylic acid-3-(b-D-glucuronide) (.tangle-soliddn.) and UDPGA (.E-backward.) were dissolved in 100 mM Tris-HCl, containing 10 mM MgCl2, pH 7.5. Tetrahydrocortisone 3-b-D-glucuronide (.diamond-solid.) was prepared in DMSO. The DMSO in reaction mixtures was 0.1% or less.
Assay Principle: Cleavage of 4-methylumbelliferyl b-D-glucuronide by bacterial b-glucuronidase generates the highly fluorescent compound, 4-methylumbelliferone. Diverse b-D-glucuronides act as competitors of b-glucuronidase, thus providing the basis of a coupled assay method for detection of glucuronide production by recombinant UGT isozymes. […] The 4-methylumbelliferyl b-D-glucuronide cleavage assay can easily be adapted to high throughput formats to detect the presence of b-D glucuronides generated using recombinant glycosyl transferase preparations.
Methods are included in text and figure legends. b-D-glucuronidase (Part G-7396), α-napthyl b-D-glucuronide, b-trifluoromethylumbelliferyl b-D-glucuronide, b-estradiol 3-(b-D-glucuronide), p-acetominophenyl b-D-glucuronide, 5 .quadrature.-androstane-3α, 17α-diol-11-one-17-carboxilic acid-3-(b-D-glucuronide), UDPGA and 4-methylumbelliferone b-D-glucuronide were obtained from Sigma, St. Louis Mo. Tetrahydrocortisone 3-b-D-glucuronide was obtained from Molecular Probes, Eugene, Oreg. Recombinant control and UGT1A6 membrane preparations were generated at PanVera Corporation and are commercially available from PanVera, Madison Wis. All other reagents were analytical grade or better and purchased from a variety of commercial sources.
In order to show the feasibility of developing a high throughput inhibition assay, we examined the potential of a variety of structurally dissimilar commercially available b-D-glucuronides to act as inhibitors for the cleavage of 4-methylumbelliferyl-b-D-glucuronide. […]

recombinant human UGT1A6 = target: T1, recombinant human UGT1A6 (Homo sapiens, UniProt P19224); experiment: Coupled assay: extracted residues of UGT1A6 / α-naphthol incubation added to b-glucuronidase fluorescence assay (FIG. 3A); format: biochemical
T1 sequence (P19224 27-532): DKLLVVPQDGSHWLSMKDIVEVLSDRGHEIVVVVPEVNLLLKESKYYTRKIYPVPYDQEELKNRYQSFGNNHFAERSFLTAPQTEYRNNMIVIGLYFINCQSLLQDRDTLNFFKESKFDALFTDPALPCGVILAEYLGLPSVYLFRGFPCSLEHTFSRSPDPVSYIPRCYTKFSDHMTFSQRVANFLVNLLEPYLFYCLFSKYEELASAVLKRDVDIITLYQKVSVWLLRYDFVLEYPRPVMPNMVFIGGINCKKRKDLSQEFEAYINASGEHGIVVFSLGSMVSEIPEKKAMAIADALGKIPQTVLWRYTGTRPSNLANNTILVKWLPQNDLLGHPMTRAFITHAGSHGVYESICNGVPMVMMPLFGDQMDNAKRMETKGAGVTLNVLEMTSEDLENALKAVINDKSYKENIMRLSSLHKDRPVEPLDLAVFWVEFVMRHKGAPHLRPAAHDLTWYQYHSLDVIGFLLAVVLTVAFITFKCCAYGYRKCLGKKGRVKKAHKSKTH
Excerpt: All other reagents were analytical grade or better and purchased from a variety of commercial sources.

UGT1A6 = experiment: Accumulation of naphthyl glucuronide in UGT1A6 assay using [14C] UDPGA; format: in vitro ADME, human; details: parallel experiment using [14C] UDPGA, data not shown
Method: Two approaches were taken to test the feasibility of coupling the UGT-dependent production of glucuronides to inhibition of fluorescent product formation by b-D-glucuronidase. The first involved extracting the UGT reaction products and adding them to the b-D-glucuronidase fluorescence assay reagents; the second involved adding the b-D-glucuronidase reaction components directly to the quenched UGT reaction. In the first approach, α-naphthyl b-D-glucuronide was generated in an incubation with recombinant human UGT1A6 and α-naphthol. Following extraction, 4-methylumbelliferyl-b-D-glucuronide assay reagents were added to the extracted, dried reaction residues. […] Inhibition of 4-methylumbelliferyl-b-D-glucuronide cleavage was dependent on the incubation time of the UGT1A6 assay, presumably reflecting increased .quadrature.-naphthyl glucuronide accumulation.

Sequence of bacterial b-glucuronidase (P05804 whole entry): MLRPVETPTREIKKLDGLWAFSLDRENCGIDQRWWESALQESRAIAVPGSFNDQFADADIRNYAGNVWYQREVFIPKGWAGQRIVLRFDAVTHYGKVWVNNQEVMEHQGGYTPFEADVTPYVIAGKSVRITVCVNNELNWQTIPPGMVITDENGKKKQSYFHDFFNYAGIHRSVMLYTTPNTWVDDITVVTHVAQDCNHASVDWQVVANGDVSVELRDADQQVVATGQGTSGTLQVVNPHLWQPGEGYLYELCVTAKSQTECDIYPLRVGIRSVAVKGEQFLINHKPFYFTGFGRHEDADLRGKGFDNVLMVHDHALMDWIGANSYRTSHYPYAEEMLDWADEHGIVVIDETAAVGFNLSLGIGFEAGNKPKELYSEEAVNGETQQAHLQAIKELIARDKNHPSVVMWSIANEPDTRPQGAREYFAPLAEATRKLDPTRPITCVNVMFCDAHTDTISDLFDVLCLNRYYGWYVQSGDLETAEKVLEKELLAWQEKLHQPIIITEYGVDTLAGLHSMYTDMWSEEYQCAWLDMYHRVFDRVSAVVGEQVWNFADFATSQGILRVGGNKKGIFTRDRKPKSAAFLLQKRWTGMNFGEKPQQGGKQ

## CN1CC[C@]23c4c5ccc(O[C@@H]6O[C@H](C(=O)O)[C@@H](O)[C@H](O)[C@H]6O)c4O[C@H]2[C@@H](O)C=C[C@H]3[C@H]1C5 [3-glucuronide]
[1]
  activity towards morphine: morphine antagonist

## CN1CC[C@]23c4c5ccc(O)c4O[C@H]2[C@@H](O[C@@H]2O[C@H](C(=O)O)[C@@H](O)[C@H](O)[C@H]2O)C=C[C@H]3[C@H]1C5 [6-glucuronide of morphine]
[2]
  analgesic potency relative to the parent compound morphine: more potent analgesic than the parent compound

## CCc1c2c(nc3ccc(OC(=O)N4CCC(N5CCCCC5)CC4)cc13)-c1cc3c(c(=O)n1C2)COC(=O)[C@]3(O)CC [Irinotecan]
UGT1A1
  toxicity associated with low expression of UGT1A1: associated with the toxicity

## O=C(O)[C@H]1O[C@H](OP(=O)(O)OP(=O)(O)OC[C@H]2O[C@@H](n3ccc(=O)[nH]c3=O)[C@H](O)[C@@H]2O)[C@H](O)[C@@H](O)[C@@H]1O [Uridine 5'-diphosphoglucuronic acid]
[3]
  inhibition of 4-methylumbelliferyl-b-D-glucuronide cleavage (production of 4-methylumbelliferone) by b-glucuronidase: not an effective competitor over the range tested

## C[C@]12CC[C@@H]3c4ccc(O[C@@H]5O[C@H](C(=O)O)[C@@H](O)[C@H](O)[C@H]5O)cc4CC[C@H]3[C@@H]1CC[C@@H]2O [b-estradiol-3-(b-D-glucuronide), b-estradiol 3-(b-D-glucuronide)]
[3]
  inhibition of 4-methylumbelliferyl-b-D-glucuronide cleavage (production of 4-methylumbelliferone) by b-glucuronidase: strongest
[3]; listed as estradiol b-D-glucuronide
  inhibition of 4-methylumbelliferyl-b-D-glucuronide cleavage (production of 4-methylumbelliferone) by b-glucuronidase: More potent inhibitors

## Oc1cccc2ccccc12 [α-naphthol]
Recombinant human UGT1A6
  interference of aglycone with the 4-methylumbelliferyl-b-D-glucuronide cleavage assay: does not interfere non-specifically

## O=C(O)[C@H]1O[C@@H](Oc2cccc3ccccc23)[C@H](O)[C@@H](O)[C@@H]1O [α-naphthyl b-D-glucuronide]
[3]
  inhibition of 4-methylumbelliferyl-b-D-glucuronide cleavage (production of 4-methylumbelliferone) by b-glucuronidase: weakest
[3]; listed as α-naphthol b-D-glucuronide
  inhibition of 4-methylumbelliferyl-b-D-glucuronide cleavage (production of 4-methylumbelliferone) by b-glucuronidase: weak competitive inhibitor
Recombinant human UGT1A6; FIG. 3A, 0.6 mg/ml UGT1A6, 2 mM UDPGA, 0.6 mM α-naphthol, 37° C, ethyl acetate extraction, vs control microsomes
  inhibition of 4-methylumbelliferyl-b-D-glucuronide cleavage by extracted residues of UGT1A6 assay: inhibited 4-methylumbelliferyl-b-D-glucuronide cleavage
UGT1A6
  accumulation of naphthyl glucuronide in the UGT1A6 assay: independently verified

— patent US6319678A, “Process for glucuronidation screening” (PanVera Corporation, priority 1999, dated 2001)
